Experiments:
[1] = Reducing power (potassium ferricyanide); type: biochemical; settings: absorbance 700 nm
Experimental: (§1) A freeze-dried sample of Example 1 was weighed and made up to 100 mg/mL in distilled water. The solution was autoclaved at 121° C. for 15 min. The supernatant was harvested after centrifugation at 4° C. was stored at −20° C. A serial dilution was then made with the stock aqueous extract into a series of increasing concentrations of the extracts up to 100 mg/mL solution. For the assay of the scavenging of DPPH radicals, a methanolic extract (membrane-filtered; 0.45 μm membrane, Acrodisc 4CR, PTEE) (replacing the solvent water with methanol and procedure stated in the first sentence) was used instead.
2.5 mL of 1% potassium ferricyanide [K3Fe(CN)6] was added to 1.0 mL of an aqueous Monascus extract of variable concentrations (prepared as stated above). The resultant mixture was incubated at 50° C. for 20 min. 2.5 mL of trichloracetic acid (TCA, 10%) were added to the mixture. 2.5 mL of the resultant solution were mixed with 2.5 mL of distilled water and 0.5 mL of FeCl3 solution (0.1%). The absorbance was measured at 700 nm. Increased absorbance of the reaction mixture indicated an increase of reducing power. Vitamin C was used as a positive control in this experiment.

[2] = Scavenging of superoxide radicals (PMS-NADH/NBT); type: biochemical; settings: PMS-NADH system, NBT, OD 560 nm; aqueous extract
Experimental: as §1
Superoxide radicals were generated in a PMS-NADH [phenazin methosulfate (PMS)-β-nicotinamide adenine dinucleotide (reduced from, NADH)] system by oxidation of NADH and assayed by the reduction of nitroblue tetrazolium (NBT). The superoxide radicals were generated in 3 mL of Tris-HCl buffer (16 mM, pH8.0), which contained 78 μM NADH, 50 μM NBT, 10 μM PMS and Monascus extracts at different concentrations to be tested. The color reaction between superoxide radicals and NBT was detected at OD 560 nm. L-ascorbic acid was used as a positive control. The inhibition rate (%) was calculated using the following formula: Inhibition rate (%)=(A−A1)/A×100%
where A was the absorbance of a negative control (distilled water), and A1 was the absorbance of the tested sample.

[3] = test system: microsomal lipid peroxidation; experiment: Inhibition of microsomal lipid peroxidation (MDA-TBA); type: biochemical; settings: rat liver microsomes, 10 μM FeSO4 and 0.1 mM ascorbic acid, 37° C. 60 min; aqueous extract
Experimental: as §1
Normal rats were sacrificed by cervical dislocation. The liver of the rats was rapidly homogenized in 0.25M of an ice-cold sucrose solution and the resultant solution was centrifuged at 12,000×g for 20 min at 4° C. The supernatant obtained was centrifuged at 15,000×g for 60 min at 4° C. […]
The microsomes (200-300 μg/mL) were incubated at 37° C. for 60 min with the extract sample of Monascus biomass at variable concentrations, 10 μM FeSO4 and 0.1 mM ascorbic acid in 1.0 mL of a phosphate buffered saline (PBS, 0.25M, pH7.4). […] After centrifugation of precipitated protein, the color reaction of MDA-TBA complex was detected at OD 532 nm. […]
where A was the absorbance (OD532) of the negative control, and A1 was that of the tested sample.

mouse = settings: cited from earlier work
[4] = Scavenging of DPPH radicals; type: biochemical; settings: methanolic extract; absorbance 515 nm, 30 s
Experimental: as §1
1.8 mL of a methanolic solution of DPPH (6×10^−5M 2,2-diphenyl-1-picrylhydrazyl) was added to 0.2 mL of a methanolic Monascus extract of variable concentrations (prepared as described above). The absorbance of the reaction mixture was measured at 515 nm exactly 30s after the DPPH solution was added. Vitamin E and methanol were used as positive and negative controls, respectively.
The inhibition rate (%) was calculated using the following formula: Inhibition rate (%)=(A−A1)/A×100%
where A was the absorbance of the negative control, and A1 was that of the tested sample.

Compound: O=C1O[C@H]([C@@H](O)CO)C(O)=C1O [Vitamin C, L-ascorbic acid]
- reducing power, concentration range of action [1]: less than 1 mg/mL
- effective concentration giving 50% inhibition, scavenging of superoxide radicals [2]: 1.5 mg/mL
- effective concentration giving 50% inhibition of microsomal lipid peroxidation [3]: 0.1 mg/mL

Compound: CC1=C2C(=CO[C@H](C)[C@H]2C)C(O)=C(C(=O)O)C1=O [citrinin]
- LD50 (lethal dose causing decrease of 50% population) (mouse): 35 mg/kg

Compound: Vitamin E
- effective concentration to give 50% inhibition, scavenging of DPPH radicals [4]: 1 mg/mL

Reference: US20060210584A1, “Method for preparing citrinin-free Monascus biomass and use of citrinin-free Monascus biomass” (priority 2005, published 2006)
